The target of experiment [1] is Acetylcholinesterase (Electrophorus electricus) (UniProt O42275). The conditions noted are these: at 2 mg/mL.
Description: Inhibition of electric eel AChE at 2 mg/ml by Ellman's method
Experiment [2] deals with Cholinesterase (Equus caballus) (UniProt P81908). To be noted: at 2 mg/mL.
Description: Inhibition of horse BChE at 2 mg/ml by Ellman's method

As a reminder, the inhibition is the change of the read-out against control, counted positive when it falls.

Acetylcholinesterase (Electrophorus electricus), sequence (O42275 24-633 limits assumed): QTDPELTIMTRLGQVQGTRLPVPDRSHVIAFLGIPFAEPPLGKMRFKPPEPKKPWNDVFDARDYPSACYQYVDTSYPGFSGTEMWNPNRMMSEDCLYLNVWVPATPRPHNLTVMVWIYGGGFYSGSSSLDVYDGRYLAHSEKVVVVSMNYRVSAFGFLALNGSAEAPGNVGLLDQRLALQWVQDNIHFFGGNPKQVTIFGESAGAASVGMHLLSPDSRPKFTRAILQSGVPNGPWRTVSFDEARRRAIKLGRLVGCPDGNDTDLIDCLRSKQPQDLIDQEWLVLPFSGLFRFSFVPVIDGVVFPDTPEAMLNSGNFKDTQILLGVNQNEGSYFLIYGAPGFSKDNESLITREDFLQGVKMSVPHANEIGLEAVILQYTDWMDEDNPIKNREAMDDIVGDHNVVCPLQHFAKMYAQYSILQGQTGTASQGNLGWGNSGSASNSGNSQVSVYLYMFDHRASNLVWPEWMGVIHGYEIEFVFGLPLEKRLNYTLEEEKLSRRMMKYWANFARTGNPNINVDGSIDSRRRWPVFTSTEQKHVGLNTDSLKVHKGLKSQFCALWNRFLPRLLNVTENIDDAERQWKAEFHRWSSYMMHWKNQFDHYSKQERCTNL
Cholinesterase (Equus caballus), sequence (P81908 whole entry): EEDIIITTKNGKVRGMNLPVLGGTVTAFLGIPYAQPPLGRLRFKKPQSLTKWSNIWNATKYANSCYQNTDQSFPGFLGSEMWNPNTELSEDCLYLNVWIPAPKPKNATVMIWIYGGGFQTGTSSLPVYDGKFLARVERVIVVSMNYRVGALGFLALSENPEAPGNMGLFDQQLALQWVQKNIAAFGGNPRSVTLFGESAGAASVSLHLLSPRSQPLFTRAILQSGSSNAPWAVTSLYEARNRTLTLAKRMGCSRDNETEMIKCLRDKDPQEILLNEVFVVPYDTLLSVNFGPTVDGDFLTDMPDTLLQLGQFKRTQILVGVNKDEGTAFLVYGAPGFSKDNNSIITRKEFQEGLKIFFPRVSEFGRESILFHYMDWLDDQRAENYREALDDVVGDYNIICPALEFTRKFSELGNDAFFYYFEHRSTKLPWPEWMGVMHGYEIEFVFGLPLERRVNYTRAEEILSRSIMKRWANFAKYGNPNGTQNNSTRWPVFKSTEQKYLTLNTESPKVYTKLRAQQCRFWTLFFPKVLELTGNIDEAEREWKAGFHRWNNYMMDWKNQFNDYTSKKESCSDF

As for `O=c1cc(-c2ccc(O)c(OC3O[C@H](CO)[C@@H](O)[C@H](O)[C@H]3O)c2)oc2cc(OC3O[C@H](CO)[C@@H](O)[C@H](O)[C@H]3O)cc(O)c12` (stereo partly drawn), the inhibition is 28.6% in experiment [1] and -2.06% in experiment [2].

As for `C[C@@H]1C[C@H]2O[C@@H]2/C=C\C=C\C(=O)Cc2c(Cl)c(O)cc(O)c2C(=O)O1`, the inhibition in experiment [1] is 17.4%; in experiment [2] it was -1.22%.

For `C[N+]1(C)CCC[C@H]1C(=O)[O-]`, the inhibition is -9.74% in experiment [1] and -3.98% in experiment [2].

With `CCCCC[C@H](O)/C=C/[C@H]1[C@H](O)CC(=O)[C@@H]1C/C=C\CCCC(=O)O`, the figures for the inhibition in experiment [1] and in experiment [2] were 14.8% and -2.38%, respectively.

With `Cc1c2ccncc2c(C)c2c1[nH]c1ccccc12`, the results for the inhibition in experiment [1] and in experiment [2] were -1.87% and 44.1%, respectively.

Regarding `O=C(/C=C/C=C/c1ccc2c(c1)OCO2)N1CCCCC1`, the inhibition was -0.1% in experiment [1] and 16.8% in experiment [2].

`O=c1cccc2n1C[C@@H]1CNC[C@H]2C1`: the inhibition in experiment [1] was 2.17%; in experiment [2], -3.85%.

With `N[C@H]1CONC1=O`, the inhibition in experiment [1] was 1.18%; in experiment [2], -5.13%.

Consider `CC1=C[C@]23C(=O)[C@@H](C=C(COC(=O)c4ccccc4)[C@@H](O)[C@]2(O)[C@H]1OC(=O)c1ccccc1)[C@H]1[C@@H](C[C@H]3C)C1(C)C`, for which the inhibition in experiment [1] was -0.16%; in experiment [2] it was 1%.

Take `C[C@H]1CC[C@@H]2[C@@H](C)[C@H]3[C@H](C[C@H]4[C@@H]5CC=C6C[C@@H](O[C@@H]7O[C@H](CO)[C@H](O)[C@H](O[C@@H]8O[C@H](CO)[C@@H](O)[C@H](O)[C@H]8O)[C@H]7O[C@@H]7O[C@@H](C)[C@H](O)[C@@H](O)[C@H]7O)CC[C@]6(C)[C@H]5CC[C@]34C)N2C1`: the figures for the inhibition in experiment [1] and in experiment [2] were 9.15% and 12.2%, respectively.

As for `Cc1coc2c1C(=O)C(=O)c1c-2ccc2c1CCCC2(C)C`, the inhibition in experiment [1] is 13.1%; in experiment [2], -0.66%.

`CCN1C[C@]2(COC)[C@H](O)C[C@H](OC)[C@@]34[C@@H]5C[C@@]6(O)[C@H](OC(=O)c7ccccc7)[C@@H]5[C@@](OC(C)=O)([C@@H]([C@H](OC)[C@H]23)[C@@H]14)[C@@H](O)[C@@H]6OC`: the inhibition in experiment [1] came out at 17.6%; in experiment [2], 3.01%.

As to `C[C@H]1COC2=C1C(=O)C(=O)c1c2ccc2c1CCCC2(C)C`, the figures for the inhibition in experiment [1] and in experiment [2] were 3.33% and 12.1%, respectively.

As for `C=C1CC[C@H]2C(=C)CC[C@H]3C(=C)C(=O)O[C@@H]3[C@@H]12`, the inhibition was 4.06% in experiment [1] and 10.7% in experiment [2].

As for `Oc1cc(O)c2c(c1)O[C@H](c1ccc(O)c(O)c1)[C@H](O)C2`, the inhibition in experiment [1] is -4.81%; in experiment [2], 0.47%.

With `COc1ccc(-c2coc3cc(O)cc(O)c3c2=O)cc1`, the inhibition in experiment [1] is 2.29%; in experiment [2], -9.1%.

For the molecule `C=C1[C@@H](C)[C@H]2[C@H](Cc3ccccc3)NC(=O)[C@]23OC(=O)/C=C/[C@H](O)CCC[C@@H](C)C/C=C/[C@H]3[C@@H]1O`, the figures for the inhibition in experiment [1] and in experiment [2] were -2.03% and 8.94%, respectively.

On to `O=C(/C=C/c1ccc(O)c(O)c1)OCCc1ccccc1`, for which the values for the inhibition in experiment [1] and in experiment [2] were -8.88% and 17.7%, respectively.

As to `COc1cc2c3cc1Oc1c(OC)c(OC)cc4c1[C@@H](Cc1ccc(O)c(c1)Oc1ccc(cc1)C[C@@H]3N(C)CC2)N(C)CC4`, the inhibition in experiment [1] amounted to 11.4%; in experiment [2], 68.5%.

With `C=C1CC[C@@H]2[C@](C)(CO)[C@H](O)CC[C@@]2(C)[C@@H]1C/C=C1/C(=O)OC[C@H]1O`, the inhibition in experiment [1] came out at 25.1%; in experiment [2], 8.56%.

With `O=C(O)c1cc(N(Cc2ccccc2O)Cc2cc(O)ccc2O)ccc1O`, the figures for the inhibition in experiment [1] and in experiment [2] were 2.35% and 17.7%, respectively.

`C/C1=C\CC(C)(C)/C=C/C(=O)/C(C)=C/CC1`: the inhibition was -4.84% in experiment [1] and 4.2% in experiment [2].

Take `CC[C@H](CC[C@@H](C)[C@H]1CC[C@H]2[C@@H]3CC=C4C[C@@H](O)CC[C@]4(C)[C@H]3CC[C@]12C)C(C)C`: the inhibition in experiment [1] was 13.8%; in experiment [2], -1.87%.

With `CC(C)=CCC/C(C)=C/CC/C(C)=C/CC/C(C)=C/C(=O)O`, the inhibition in experiment [1] is -5.57%; in experiment [2], -2.05%.

Turning to `C=C(C)[C@H]1Cc2c(ccc3c2O[C@@H]2COc4cc(OC)c(OC)cc4[C@@H]2C3=O)O1`, the figures for the inhibition in experiment [1] and in experiment [2] were 16.4% and 6.43%, respectively.

`Cc1cc(Cc2cc(C)cc(C(C)(C)C)c2O)c(O)c(C(C)(C)C)c1`: the inhibition in experiment [1] is -4.45%; in experiment [2], 0.28%.

Regarding `OCc1c[nH]c2ccccc12`, the inhibition is -4.82% in experiment [1] and 9.11% in experiment [2].

For `C/C=C1\[C@H]2C=C(C)C[C@]1(N)c1ccc(=O)[nH]c1C2`, the results for the inhibition in experiment [1] and in experiment [2] were 97.3% and 11.8%, respectively.

`O[C@H]1[C@H]2[C@H](O)CCCN2C[C@H]1O`: the inhibition was 5.09% in experiment [1] and -2.04% in experiment [2].

For the molecule `CC[C@H]1CC[C@@]2(C)CN(CC)[C@@H]3[C@@H]4[C@@H](O)[C@H]2[C@@]13[C@@H]1C[C@@H]2CC[C@@]4(O)[C@H]1C(=O)O2`, the inhibition in experiment [1] was 22.5%; in experiment [2] it was -3.58%.

As to `CC1(C)[C@@H](O)C[C@H]2[C@](C)(O)[C@@H]3CC[C@@H]4[C@@H](O)[C@@]3(C[C@@H](O)[C@@]21O)C[C@@]4(C)O`, the inhibition in experiment [1] was -8.91%; in experiment [2], 4.52%.

For `CC(C)C[C@H]1C(=O)N2CCC[C@H]2[C@]2(O)O[C@](NC(=O)[C@@H]3C=C4c5cccc6[nH]c(Br)c(c56)C[C@H]4N(C)C3)(C(C)C)C(=O)N12`, the inhibition in experiment [1] is -0.33%; in experiment [2] it was 9.94%.

For the molecule `C[n+]1cccc(C(=O)[O-])c1`, the inhibition in experiment [1] is -1.47%; in experiment [2], -5.02%.

For the molecule `O=C1c2cccc(O)c2C(=O)c2c(O)cc(CO)cc21`, the inhibition in experiment [1] is 14.6%; in experiment [2], -0.88%.

As for `COC(=O)C1=CO[C@@H](C)[C@@H]2CN3CCc4c([nH]c5ccccc45)[C@@H]3C[C@H]12`, the inhibition in experiment [1] came to 22%; in experiment [2] it was 89.1%.

As for `C[C@H]1C(=O)O[C@@H]2CCN3CC=C(COC(=O)[C@](C)(O)[C@]1(C)O)[C@H]23`, the inhibition in experiment [1] was 19.5%; in experiment [2] it was 4.32%.

With `NC[C@H]1O[C@H](O[C@H]2[C@H](O)[C@@H](O[C@H]3O[C@H](CO)[C@@H](O)[C@H](N)[C@H]3O)[C@H](N)C[C@@H]2N)[C@H](O)[C@@H](O)[C@@H]1O`, the inhibition in experiment [1] was 17.6%; in experiment [2], -5.91%.

In the case of `CC[C@@H](C)C(=O)O[C@H]1[C@H](O)[C@H]2[C@@H](CN3C[C@@H](C)CC[C@H]3[C@@]2(C)O)[C@@H]2C[C@]34O[C@]5(O)[C@@H](OC(=O)[C@](C)(O)[C@@H](C)O)CC[C@@]3(C)[C@@H]5[C@@H](OC(C)=O)[C@@H](OC(C)=O)[C@H]4[C@@]21O`, the inhibition is -5.22% in experiment [1] and -0.35% in experiment [2].

In the case of `O=C1CCC[C@@H]2[C@H]3CCCN4CCC[C@@H](CN12)[C@@H]34`, the inhibition was -1.14% in experiment [1] and 22.4% in experiment [2].

As for `CO[C@@H]1[C@@H](OC)[C@H](C)[C@@](O)(CC(=O)O)O[C@H]1[C@H](C)[C@H]1O[C@@]2(CC[C@@](C)([C@H]3CC[C@@](C)([C@@H]4O[C@@H]([C@H]5O[C@](C)(O)[C@H](C)C[C@@H]5C)C[C@@H]4O[C@@H]4C[C@H](OC)[C@@H](OC)[C@H](C)O4)O3)O2)C[C@H](O)[C@H]1C`, the inhibition in experiment [1] is 22.7%; in experiment [2] it was -3.8%.

Turning to `C[C@H]1CC[C@]2(NC1)O[C@H]1C[C@H]3[C@@H]4CC[C@H]5C[C@@H](O)CC[C@]5(C)[C@H]4CC[C@]3(C)[C@H]1[C@@H]2C`, the inhibition in experiment [1] stood at 11.4%; in experiment [2], 6.89%.

As to `Cc1cc(O)c2c(c1)C(=O)c1cc(O)cc(O)c1C2=O`, the values for the inhibition in experiment [1] and in experiment [2] were 24.3% and 1.03%, respectively.

In the case of `CC[C@]12CCCN3CCc4c(n(c5ccccc45)C(=O)C1)[C@@H]32`, the inhibition in experiment [1] was determined as 12.1%; in experiment [2], 0.04%.

Regarding `O=c1oc2cc(O)ccc2c2oc3cc(O)ccc3c12`, the inhibition was found to be 3.18% in experiment [1] and 9.06% in experiment [2].

On to `COc1c2ccoc2cc2oc(C)cc(=O)c12`, for which the figures for the inhibition in experiment [1] and in experiment [2] were 7% and 16.2%, respectively.

With `O=C(/C=C/c1ccc(O)cc1)CC(=O)/C=C/c1ccc(O)cc1`, the results for the inhibition in experiment [1] and in experiment [2] were 2% and 7.13%, respectively.

For `C=C1C[C@]23C[C@@]1(O)CC[C@H]2[C@@]12C=C[C@H](O)[C@@](C)(C(=O)O1)[C@H]2[C@@H]3C(=O)O`, the inhibition is -1.11% in experiment [1] and -5.65% in experiment [2].

Consider `O=C1C[C@@H](c2ccc(O)c(O)c2)Oc2c1ccc(O[C@@H]1O[C@H](CO)[C@@H](O)[C@H](O)[C@H]1O)c2O`, for which the inhibition in experiment [1] was determined as 8.08%; in experiment [2] it was 3.1%.

In the case of `COc1cc([C@@H]2c3cc4c(cc3[C@H](O)[C@H]3COC(=O)[C@H]23)OCO4)cc(OC)c1OC`, the inhibition in experiment [1] is 8.74%; in experiment [2], -9.54%.

On to `COc1cc2c(cc1OC)[C@H](C)NCC2`, for which the inhibition in experiment [1] was -3.39%; in experiment [2], -4.57%.

As to `CCN1C[C@]2(COC)CC[C@H](OC)[C@]34C5C[C@@H]6[C@@H](OC)C[C@@]7(OCO[C@@]7(C13)[C@@H](O)C24)C5[C@H]6OC` (stereo partly drawn), the results for the inhibition in experiment [1] and in experiment [2] were 23.4% and -6.6%, respectively.

Take `O=c1cc(-c2ccc(O)cc2)oc2c(O[C@@H]3O[C@H](CO)[C@@H](O)[C@H](O)[C@H]3O)c(O)c(O[C@@H]3O[C@H](CO)[C@@H](O)[C@H](O)[C@H]3O)c(O)c12`: the results for the inhibition in experiment [1] and in experiment [2] were 22.2% and 1.92%, respectively.

Take `C=C1[C@H]2C[C@@]3([C@@H]1O)[C@@H](CC2=O)[C@]12[C@@H]4C[C@H]3[C@H]1N(CC)C[C@]4(C)CC[C@@H]2O`: the inhibition in experiment [1] turned out to be 26.3%; in experiment [2], 1.01%.

Turning to `C=C[C@](C)(O)CC[C@@H]1[C@@]2(C)CCCC(C)(C)[C@@H]2CC[C@@]1(C)O`, the inhibition in experiment [1] is 3.08%; in experiment [2], -2.61%.

The record behind these values is ChEMBL document CHEMBL2163249, “Exploration of natural compounds as sources of new bifunctional scaffolds targeting cholinesterases and beta amyloid aggregation: the case of chelerythrine” (Bioorg Med Chem, 2012).
